Experimental data taken from USRE37781E1, “Substituted cyclic carbonyls and derivatives thereof useful as retroviral protease inhibitors” (DuPont Pharmaceuticals Company, priority 1991, dated 2002).
Where two headings read alike, the source gives them in different places.

Columns and labels:
[1] = test system: HIV-1 (RF) in MT-2 cells; assay: microbe, parasite or virus in culture; assay type: cell-based
Procedure, shortened: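 HIV-1 laboratory strains (RF, MN, IIIB) grown in H9 cells in RPMI 1640 with 5% FCS; infections in MT-2 cells. Viral RNA quantified by hybridization with biotinylated gag/pol capture probes on streptavidin plates and alkaline phosphatase-conjugated reporter probes; BH10 gag-pol in vitro transcripts serve as RNA standards.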

[2] = target: single-chain tethered dimer of HIV protease (Human immunodeficiency virus 1, UniProt P04585); assay: biochemical; assay type: biochemical
Method: HIV Protease Inhibition Assay—HPLC Method
Active protease was prepared as described therein by extraction with 67% acetic acid, dilution 33-fold with water, dialysis against water and then against a “refolding buffer” consisting of 20 mM MES, 1 mM dithiothreitol and 10% glycerol. Protease was stored as a stock preparation at 10 uM in refolding buffer.
Substrate: Peptide of sequence: aminobenzoyl-Ala-Thr-His-Gln-Val-Tyr-Phe(NO2)-Val-Arg-Lys-Ala containing p-nitrophenylalanine, was prepared by solid phase synthesis as previously described Cheng et al., op.cit. Stock solutions of 2 mM substrate were prepared in DMSO.
Inhibitory compounds were dissolved in sufficient DMSO to make 3 mM stock solutions. All further dilutions were prepared in “assay buffer”: 1M NaCl, 50 mM MES, pH 5.5, 1 mM EDTA, 1 mM DTT, […] glycerol.
Enzyme reaction: In a 2 ml screw-cap centrifuge tube were added 50 ul protease (final concentration 0.25 nM) and 0.1 ml inhibitory compound (final concentration […]). After 15 min preincubation at room temperature, the reaction was started with the addition of 0.05 ml substrate (final concentration 5 uM). Incubation was carried out at 30 C. for 1 hr. The reaction was stopped with 1 ml 0.1M ammonium hydroxide.
HPLC measurement of product formation: The product (aminobenzoyl-Ala-Thr-His-Gln-Val-Tyr) was separated from substrate on a Pharmacia MonoQ anion exchange column. The injection volume was 0.2 ml. The mobile phases were: A (20 mM trisHCl, pH 9.0, 0.02% sodium Azide, 10% acetonitrile), B (20 mM tris HCl, pH 9.0, 0.02% sodium azide, 0.5M ammonium formate, 10% acetonitrile). The mobile phases were pumped at 1 ml/min, with a gradient from 0 to 30% B in 5 min, 100% B for 4 min to wash the column, and a re-equilibration for 4 min. The retention time of the product was 3.6 min. Detection with a Shimadzu model RF535 fluorescence monitor was at 330 nm (excitation) and 430 (emission).

[3] = target: T1, HIV protease (Human immunodeficiency virus type 1 group M subtype B, UniProt P04585); assay: biochemical; set-up: species or system HIV-1
T1 construct: plasmid containing HIV protease under the control of an inducible T7 promoter; made in house; host or cells: E. coli (inclusion bodies, T7 promoter)
Method: HIV Protease Inhibition Assay—Spectroscopic Method
Inclusion bodies were solubilized in 8M urea, 50 mM tris pH 8.0. Protease activity was recovered by dilution 20-fold into buffer containing 50 mM sodium acetate pH 5.5, 1 mM EDTA, 10% glycerol and 5% ethylene glycol. Enzyme was used at a final concentration of 1.0-10 ug/ml.
Stock solutions of 10 mM were prepared in DMSO.
All further dilutions were done in DMSO.

[4] = Human immunodeficiency virus 1, MT2, HIV RNA assay, HIV-1 infected MT-2 cells, class symbols, read-out: IC90
[5] = HIV RNA assay, HIV-1 infected MT-2 cells, class symbols
[6] = HIV protease inhibition, class symbols, read-out: Ki
[7] = Human immunodeficiency virus 1, MT2, Table 1c, read-out: IC90
[8] = second table headed Table 2A, read-out: Ki
[9] = Human immunodeficiency virus 1, MT2, Table 2A, read-out: IC90
[10] = Human immunodeficiency virus 1, MT2, second table headed Table 2A, read-out: IC90

O=C1N(Cc2cccnc2)C(Cc2ccccc2)C(O)C(O)C(Cc2ccccc2)N1Cc1cccnc1 (centres unmarked) [Example 5O]
IC90 [1, 4]: < 10 µg/mL
Ki [2]: < 10 nM

O=C1N(Cc2ccccc2)C(Cc2ccccc2)C(O)C(O)C(Cc2ccccc2)N1Cc1ccc2ccccc2n1 (centres unmarked) [Example 4O]
IC90 [1, 4]: < 10 µg/mL
Ki [2]: 10 to 1000 nM

O=C(O)c1cccc(CN2C(=O)N(Cc3cccc(C(=O)O)c3)C(Cc3ccccc3)C(O)C(O)C2Cc2ccccc2)c1 (centres unmarked) [Example 6A]
IC90 [1, 5]: +++ (+++=<10 μg/mL)
Ki [2, 6]: < 10 nM

COC(=O)c1cccc(CN2C(=O)N(Cc3cccc(C(=O)OC)c3)C(Cc3ccccc3)C(O)C(O)C2Cc2ccccc2)c1 (centres unmarked) [Example 5T]
IC90 [1, 4]: < 10 µg/mL
Ki [2]: < 10 nM

O=C1N(Cc2ccc3ccccc3c2)CCC(O)C(Cc2ccccc2)N1Cc1ccc2ccccc2c1 (centres unmarked) [30M]
Ki ([2]; Table 2t, read-out: Ki): > 1000 nM

O=C1N(Cc2ccccc2)CC(O)C(Cc2ccccc2)N1Cc1ccccc1 (racemic) [30A]
Ki ([2]; Table 2t, read-out: Ki): > 1000 nM

O=C1N(CC2CCCCC2)C(Cc2ccccc2)C(O)C(O)C(Cc2ccccc2)N1CC1CCCCC1 (centres unmarked) [Example 3O]
IC90 [1, 5]: + (+=>100 μg/mL)
Ki [2, 6]: 10 to 1000 nM

O=C1N(Cc2ccc(Cl)s2)C(Cc2ccccc2)C(O)C(O)C(Cc2ccccc2)N1Cc1ccc(Cl)s1 (centres unmarked) [Example 6F]
IC90 [1, 5]: +++ (+++=<10 μg/mL)
Ki [2, 6]: 10 to 1000 nM

O=C1N(Cc2ccc(CO)cc2)CCC(O)C(Cc2ccccc2)N1Cc1ccc(CO)cc1 (centres unmarked) [30N]
Ki ([2]; Table 2t, read-out: Ki): 10 to 1000 nM

O=S1(=O)N(Cc2ccc3ccccc3c2)CC(O)C(Cc2ccccc2)N1Cc1ccc2ccccc2c1 (centres unmarked) [30I]
Ki ([2]; Table 2t, read-out: Ki): 10 to 1000 nM

O=C1N(Cc2ccccc2)CCC(O)C(Cc2ccccc2)N1Cc1ccccc1 (centres unmarked) [30L]
Ki ([2]; Table 2t, read-out: Ki): > 1000 nM

O=S1(=O)N(CC2CC2)CC(O)C(Cc2ccccc2)N1CC1CC1 (centres unmarked) [30J]
Ki ([2]; Table 2t, read-out: Ki): > 1000 nM

O=C1NC(Cc2ccccc2)C(O)C(O)C(Cc2ccccc2)N1CC1CC1 (centres unmarked) [Example 4X]
Ki [2, 6]: 10 to 1000 nM

N#Cc1cccc(CN2CC(O)C(Cc3ccccc3)N(Cc3cccc(C#N)c3)C2=O)c1 (centres unmarked) [30C]
Ki ([2]; Table 2t, read-out: Ki): > 1000 nM

O=C1[C@@H](Cc2ccccc2)C[C@@H](O)[C@@H](Cc2ccccc2)N1Cc1ccccc1 [Example 25A]
Ki [2]: > 1000 nM

O=C1N(Cc2ccc(CO)cc2)CC(O)C(Cc2ccccc2)N1Cc1ccc(CO)cc1 (centres unmarked) [30B]
Ki ([2]; Table 2t, read-out: Ki): > 1000 nM

O=C1N(CC2CC2)CCC(O)C(Cc2ccccc2)N1CC1CC1 (centres unmarked) [30O]
Ki ([2]; Table 2t, read-out: Ki): > 1000 nM

O=C1N(Cc2ccccc2)CC(O)C(Cc2ccccc2)N1Cc1ccccc1 (centres unmarked) [30U]
Ki ([2]; Table 2t, read-out: Ki): > 1000 nM

O=C1N(CC2CC2)CC(O)C(Cc2ccccc2)N1CC1CC1 (centres unmarked) [30E]
Ki ([2]; Table 2t, read-out: Ki): > 1000 nM

O=S1(=O)N(Cc2ccccc2)CCC(O)C(Cc2ccccc2)N1Cc1ccccc1 (centres unmarked) [30Q]
Ki ([2]; Table 2t, read-out: Ki): > 1000 nM

O=C1N(CCCCCCO)CC(O)C(Cc2ccccc2)N1CCCCCCO (centres unmarked) [30G]
Ki ([2]; Table 2t, read-out: Ki): > 1000 nM

N#CN=C1N(Cc2ccc(OCc3ccccc3)cc2)C(Cc2ccccc2)C(O)C(O)C(Cc2ccccc2)N1Cc1ccc(OCc2ccccc2)cc1 (centres unmarked) [Example 1BT]
Ki ([3]; Ki): 10 to 1000 nM
IC90 [1, 7]: > 100 µg/mL
melting point: 90.1 °C

CC(C)=CCN1C(=NC#N)N(CC=C(C)C)C(Cc2ccccc2)C(O)C(O)C1Cc1ccccc1 (centres unmarked) [Example 1CI]
Ki ([3]; Ki): 10 to 1000 nM
IC90 [1, 7]: < 10 µg/mL
melting point: 72.9 °C

O=C1N(CCCc2ccccc2)C(Cc2ccccc2)C(O)C(O)C(Cc2ccccc2)N1CCCc1ccccc1 (centres unmarked) [Example 2B]
Ki ([3]; Table 2A, read-out: Ki): 10 to 1000 nM
Ki [3, 8]: 10 to 1000 nM
IC90 [1, 9]: < 10 µg/mL
IC90 [1, 10]: < 10 µg/mL
melting point: 120.7 °C

O=C1CCN(Cc2ccccc2)C(=O)N(Cc2ccccc2)C1Cc1ccccc1 (centres unmarked) [30S]
Ki ([2]; Table 2t, read-out: Ki): > 1000 nM

N#Cc1cccc(CN2CCC(O)C(Cc3ccccc3)N(Cc3cccc(C#N)c3)C2=O)c1 (centres unmarked) [30P]
Ki ([2]; Table 2t, read-out: Ki): > 1000 nM

N#CN=C1N(CC2CCC2)C(Cc2ccccc2)C(O)C(O)C(Cc2ccccc2)N1CC1CCC1 (centres unmarked) [Example 1CK]
Ki ([3]; Ki): < 10 nM
IC90 [1, 7]: < 10 µg/mL
melting point: 235.5 °C

O=C1N(Cc2ccc3ccccc3c2)CC(O)C(Cc2ccccc2)N1Cc1ccc2ccccc2c1 (centres unmarked) [30F]
Ki ([2]; Table 2t, read-out: Ki): > 1000 nM

O=C1N(Cc2ccc(OC(F)(F)F)cc2)C(Cc2ccccc2)C(O)C(O)C(Cc2ccccc2)N1Cc1ccc(OC(F)(F)F)cc1 (centres unmarked) [Example 2L]
Ki ([3]; Table 2A, read-out: Ki): 10 to 1000 nM
Ki [3, 8]: 10 to 1000 nM
IC90 [1, 9]: < 10 µg/mL
IC90 [1, 10]: < 10 µg/mL
melting point: 136.8 °C

CC(C)CCN1C(=NC#N)N(CCC(C)C)C(Cc2ccccc2)C(O)C(O)C1Cc1ccccc1 (centres unmarked) [Example 1CM]
Ki ([3]; Ki): 10 to 1000 nM
IC90 [1, 7]: < 10 µg/mL
melting point: 76.1 °C

O=C1N(Cc2ccc(F)c(C(F)(F)F)c2)C(Cc2ccccc2)C(O)C(O)C(Cc2ccccc2)N1Cc1ccc(F)c(C(F)(F)F)c1 (centres unmarked) [Example 2K]
Ki ([3]; Table 2A, read-out: Ki): 10 to 1000 nM
Ki [3, 8]: 10 to 1000 nM
IC90 [1, 9]: < 10 µg/mL
IC90 [1, 10]: < 10 µg/mL
melting point: 167.2 °C

O=C1N(Cc2cccc(OC(F)(F)F)c2)C(Cc2ccccc2)C(O)C(O)C(Cc2ccccc2)N1Cc1cccc(OC(F)(F)F)c1 (centres unmarked) [Example 2J]
Ki ([3]; Table 2A, read-out: Ki): 10 to 1000 nM
Ki [3, 8]: 10 to 1000 nM
IC90 [1, 9]: < 10 µg/mL
IC90 [1, 10]: < 10 µg/mL
melting point: 128.3 °C

N#CN=C1N(CC2CCCCC2)C(Cc2ccccc2)C(O)C(O)C(Cc2ccccc2)N1CC1CCCCC1 (centres unmarked) [Example 1CJ]
Ki ([3]; Ki): < 10 nM
IC90 [1, 7]: < 10 µg/mL
melting point: 96.4 °C

N#CN=C1N(Cc2cccc(OCc3ccccc3)c2)C(Cc2ccccc2)C(O)C(O)C(Cc2ccccc2)N1Cc1cccc(OCc2ccccc2)c1 (centres unmarked) [Example 1CA]
Ki ([3]; Ki): 10 to 1000 nM
IC90 [1, 7]: > 100 µg/mL
melting point: 75.2 °C

C=COCCN1C(=O)N(CCOC=C)C(Cc2ccccc2)C(O)C(O)C1Cc1ccccc1 (centres unmarked) [Example 4D]
Ki [2]: 10 to 1000 nM

O=C1N(Cc2ccccc2)CCC(=NO)C(Cc2ccccc2)N1Cc1ccccc1 (centres unmarked) [30T]
Ki ([2]; Table 2t, read-out: Ki): > 1000 nM

O=C1N(Cc2ccc(O)cc2)CC(O)C(Cc2ccccc2)N1Cc1ccc(O)cc1 (centres unmarked) [30D]
Ki ([2]; Table 2t, read-out: Ki): > 1000 nM

NC(=NO)c1cccc(CN2CCC(O)C(Cc3ccccc3)N(Cc3cccc(C(N)=NO)c3)C2=O)c1 (centres unmarked) [30R]
Ki ([2]; Table 2t, read-out: Ki): < 10 nM

CN1C(=O)N(Cc2ccccc2)C(Cc2ccccc2)C(O)C(O)C1Cc1ccccc1 (centres unmarked) [Example 2H]
Ki ([3]; Table 2A, read-out: Ki): 10 to 1000 nM
Ki [3, 8]: 10 to 1000 nM
IC90 [1, 9]: < 10 µg/mL
IC90 [1, 10]: < 10 µg/mL
melting point: 81 °C

N#CN=C1N(Cc2ccc(O)cc2)C(Cc2ccccc2)C(O)C(O)C(Cc2ccccc2)N1Cc1ccc(O)cc1 (centres unmarked) [Example 1BU]
Ki ([3]; Ki): < 10 nM
IC90 [1, 7]: < 10 µg/mL
melting point: 103.3 °C
